Reference: US9938273B2 (Plexxikon Inc., priority 2015, dated 2018)
pIC50: −log10 of the molar value.

Molecular target: T1, FLT3-ITD (Homo sapiens, UniProt P36888)
T1 sequence (P36888 1-993): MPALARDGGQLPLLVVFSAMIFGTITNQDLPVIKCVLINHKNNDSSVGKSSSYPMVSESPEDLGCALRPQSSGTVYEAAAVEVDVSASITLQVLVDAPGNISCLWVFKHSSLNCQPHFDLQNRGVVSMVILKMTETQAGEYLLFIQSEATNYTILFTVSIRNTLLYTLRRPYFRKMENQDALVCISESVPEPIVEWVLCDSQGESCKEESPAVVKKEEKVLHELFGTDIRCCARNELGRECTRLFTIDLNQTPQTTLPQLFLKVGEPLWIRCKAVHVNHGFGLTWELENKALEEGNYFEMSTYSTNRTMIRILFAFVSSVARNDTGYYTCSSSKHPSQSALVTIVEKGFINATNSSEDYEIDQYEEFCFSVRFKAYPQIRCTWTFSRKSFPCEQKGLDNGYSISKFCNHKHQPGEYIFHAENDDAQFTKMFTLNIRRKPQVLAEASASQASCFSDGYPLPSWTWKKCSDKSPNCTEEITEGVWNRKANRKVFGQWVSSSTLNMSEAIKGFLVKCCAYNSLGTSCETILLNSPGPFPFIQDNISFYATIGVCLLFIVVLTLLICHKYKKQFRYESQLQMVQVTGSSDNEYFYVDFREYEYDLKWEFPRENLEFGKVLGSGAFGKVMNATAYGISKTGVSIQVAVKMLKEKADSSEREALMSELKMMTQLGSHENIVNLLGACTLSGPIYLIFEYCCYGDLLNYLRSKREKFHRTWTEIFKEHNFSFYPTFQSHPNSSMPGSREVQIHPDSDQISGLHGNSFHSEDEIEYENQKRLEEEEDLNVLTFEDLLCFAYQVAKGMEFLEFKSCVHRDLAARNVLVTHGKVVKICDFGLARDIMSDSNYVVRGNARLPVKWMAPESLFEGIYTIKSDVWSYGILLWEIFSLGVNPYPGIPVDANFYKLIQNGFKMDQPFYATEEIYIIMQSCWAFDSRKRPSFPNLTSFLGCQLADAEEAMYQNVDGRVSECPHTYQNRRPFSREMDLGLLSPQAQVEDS
Test: AlphaScreen kinase assay with recombinant enzyme, FLT3-ITD
Assay type: biochemical
Conditions: 8pt; read-out: FLT3_ITD 8pt: IC50
Outline: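 Tyrosine phosphorylation of biotin-poly(Glu4-Tyr) substrate by recombinant enzyme is detected with PY20 acceptor and streptavidin donor beads after room-temperature incubations of 20 and 60 min. IC50 values were derived at a final 10 μM (FLT3-D835Y, FLT3-ITD) or 100 μM (c-KIT).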

| Structure (SMILES) | pIC50 |
| --- | --- |
| CONC(=O)c1cccc(-c2cnc3[nH]c(-c4ccccc4)cc3c2)c1 [Compound P-0003, N-methoxy-3-(2-phenyl-1H-pyrrolo[2,3-b]pyridin-5-yl)benzamide] | 5.00 to 10.00 |
| NC(=O)Nc1ccc(-c2cnc3[nH]c(-c4ccccc4)cc3c2)cc1 [Compound P-0005, [4-(2-phenyl-1H-pyrrolo[2,3-b]pyridin-5-yl)phenyl]urea] | 5.00 to 10.00 |
| CNC(=O)Nc1ccc(-c2cnc3[nH]c(-c4ccccc4)cc3c2)cc1 [Compound P-0006, 1-methyl-3-[4-(2-phenyl-1H-pyrrolo[2,3-b]pyridin-5-yl)phenyl]urea] | 5.00 to 10.00 |
| NC1CCN(C(=O)c2n[nH]c3ccc(-c4cnc5[nH]c(-c6ccccc6)cc5c4)cc23)CC1 [Compound P-0012, (4-amino-1-piperidyl)-[5-(2-phenyl-1H-pyrrolo[2,3-b]pyridin-5-yl)-1H-indazol-3-yl]methanone] | 5.00 to 10.00 |
| NC1CCN(C(=O)c2cccc(-c3cnc4[nH]c(-c5ccccc5)cc4c3)n2)CC1 [Compound P-0013, (4-amino-1-piperidyl)-[6-(2-phenyl-1H-pyrrolo[2,3-b]pyridin-5-yl)-2-pyridyl]methanone] | 5.00 to 10.00 |
| N[C@H]1CCN(C(=O)c2cccc(-c3cnc4[nH]c(-c5ccccc5)cc4c3)n2)C1 [Compound P-0015, [(3S)-3-aminopyrrolidin-1-yl]-[6-(2-phenyl-1H-pyrrolo[2,3-b]pyridin-5-yl)-2-pyridyl]methanone] | 5.00 to 10.00 |
| N[C@H]1CCN(C(=O)c2n[nH]c3ccc(-c4cnc5[nH]c(-c6ccccc6)cc5c4)cc23)C1 [Compound P-0016, [(3S)-3-aminopyrrolidin-1-yl]-[5-(2-phenyl-1H-pyrrolo[2,3-b]pyridin-5-yl)-1H-indazol-3-yl]methanone] | 5.00 to 10.00 |
| CC(C)(C)OC(=O)NC1CCN(C(=O)c2cccc(-c3cnc4[nH]c(-c5ccccc5)cc4c3)n2)CC1 [Compound P-0017, tert-butyl N-[1-[6-(2-phenyl-1H-pyrrolo[2,3-b]pyridin-5-yl)pyridine-2-carbonyl]-4-piperidyl]carbamate] | 5.00 to 10.00 |
| NC1CCC(NC(=O)c2cccc(-c3cnc4[nH]c(-c5ccccc5)cc4c3)n2)CC1 (centres unmarked) [Compound P-0018, N-(4-aminocyclohexyl)-6-(2-phenyl-1H-pyrrolo[2,3-b]pyridin-5-yl)pyridine-2-carboxamide] | 5.00 to 10.00 |
| CC(=O)NC1CCN(C(=O)c2cccc(-c3cnc4[nH]c(-c5ccccc5)cc4c3)n2)CC1 [Compound P-0020, N-[1-[6-(2-phenyl-1H-pyrrolo[2,3-b]pyridin-5-yl)pyridine-2-carbonyl]-4-piperidyl]acetamide] | 5.00 to 10.00 |
| CN1CCC(NC(=O)c2n[nH]c3ccc(-c4cnc5[nH]c(-c6ccccc6)cc5c4)cc23)CC1 [Compound P-0022, N-(1-methyl-4-piperidyl)-5-(2-phenyl-1H-pyrrolo[2,3-b]pyridin-5-yl)-1H-indazole-3-carboxamide] | 5.00 to 10.00 |
| O=C(c1cccc(-c2cnc3[nH]c(-c4ccccc4)cc3c2)n1)N1CCC(CO)CC1 [Compound P-0023, [4-(hydroxymethyl)-1-piperidyl]-[6-(2-phenyl-1H-pyrrolo[2,3-b]pyridin-5-yl)-2-pyridyl]methanone] | 5.00 to 10.00 |
| CCOC(=O)C1CCN(C(=O)c2cccc(-c3cnc4[nH]c(-c5ccccc5)cc4c3)n2)CC1 [Compound P-0025, ethyl 1-[6-(2-phenyl-1H-pyrrolo[2,3-b]pyridin-5-yl)pyridine-2-carbonyl]piperidine-4-carboxylate] | 5.00 to 10.00 |
| NCC1CCN(C(=O)c2cccc(-c3cnc4[nH]c(-c5ccccc5)cc4c3)n2)CC1 [Compound P-0026, [4-(aminomethyl)-1-piperidyl]-[6-(2-phenyl-1H-pyrrolo[2,3-b]pyridin-5-yl)-2-pyridyl]methanone] | 5.00 to 10.00 |
| CC1CCN(C(=O)c2n[nH]c3ccc(-c4cnc5[nH]c(-c6ccccc6)cc5c4)cc23)CC1 [Compound P-0027, (4-methyl-1-piperidyl)-[5-(2-phenyl-1H-pyrrolo[2,3-b]pyridin-5-yl)-1H-indazol-3-yl]methanone] | 4.30 to 5.00 |
| CNC1CCN(C(=O)c2n[nH]c3ccc(-c4cnc5[nH]c(-c6ccccc6)cc5c4)cc23)C1 (centres unmarked) [Compound P-0028, [3-(methylamino)pyrrolidin-1-yl]-[5-(2-phenyl-1H-pyrrolo[2,3-b]pyridin-5-yl)-1H-indazol-3-yl]methanone] | 5.00 to 10.00 |
| CNC1CCN(C(=O)c2cccc(-c3cnc4[nH]c(-c5ccccc5)cc4c3)n2)C1 (centres unmarked) [Compound P-0040, [3-(methylamino)pyrrolidin-1-yl]-[6-(2-phenyl-1H-pyrrolo[2,3-b]pyridin-5-yl)-2-pyridyl]methanone] | 5.00 to 10.00 |
| CNC1CN(C(=O)c2cccc(-c3cnc4[nH]c(-c5ccccc5)cc4c3)n2)C1 [Compound P-0052, [3-(methylamino)azetidin-1-yl]-[6-(2-phenyl-1H-pyrrolo[2,3-b]pyridin-5-yl)-2-pyridyl]methanone] | 5.00 to 10.00 |
| CNC1CCN(C(=O)c2cccc(-c3cnc4[nH]c(-c5ccc(F)cc5)cc4c3)n2)C1 (centres unmarked) [Compound P-0055, [6-[2-(4-fluorophenyl)-1H-pyrrolo[2,3-b]pyridin-5-yl]-2-pyridyl]-[3-(methylamino)pyrrolidin-1-yl]methanone] | 5.00 to 10.00 |
| CN[C@@H]1CCN(C(=O)c2cccc(-c3cnc4[nH]c(-c5ccccc5)cc4c3)n2)C1 [Compound P-0058, [(3R)-3-(methylamino)pyrrolidin-1-yl]-[6-(2-phenyl-1H-pyrrolo[2,3-b]pyridin-5-yl)-2-pyridyl]methanone] | 5.00 to 10.00 |
| CNC1CCN(C(=O)c2cccc(-c3cnc4[nH]c(-c5ccnc(OC)c5)cc4c3)n2)C1 (centres unmarked) [Compound P-0060, [6-[2-(2-methoxy-4-pyridyl)-1H-pyrrolo[2,3-b]pyridin-5-yl]-2-pyridyl]-[3-(methylamino)pyrrolidin-1-yl]methanone] | 5.00 to 10.00 |
| CNC1CCN(C(=O)c2cccc(-c3cnc4[nH]c(-c5cnn(CC(F)(F)F)c5)cc4c3)n2)C1 (centres unmarked) [Compound P-0061, [3-(methylamino)pyrrolidin-1-yl]-[6-[2-[1-(2,2,2-trifluoroethyl)pyrazol-4-yl]-1H-pyrrolo[2,3-b]pyridin-5-yl]-2-pyridyl]methanone] | 5.00 to 10.00 |
| CNC1CCN(C(=O)c2cccc(-c3cnc4[nH]c(-c5cccc(C#N)c5)cc4c3)n2)C1 (centres unmarked) [Compound P-0062, 3-[5-[6-[3-(methylamino)pyrrolidine-1-carbonyl]-2-pyridyl]-1H-pyrrolo[2,3-b]pyridin-2-yl]benzonitrile] | 5.00 to 10.00 |
| CNC1CCN(S(=O)(=O)c2cccc(-c3cnc4[nH]c(-c5ccccc5)cc4c3)n2)C1 (centres unmarked) [Compound P-0063, N-methyl-1-[[6-(2-phenyl-1H-pyrrolo[2,3-b]pyridin-5-yl)-2-pyridyl]sulfonyl]pyrrolidin-3-amine] | 5.00 to 10.00 |
| CN1CCC(NC(=O)c2cccc(-c3cnc4[nH]c(-c5ccccc5)cc4c3)n2)C1 (centres unmarked) [Compound P-0064, N-(1-methylpyrrolidin-3-yl)-6-(2-phenyl-1H-pyrrolo[2,3-b]pyridin-5-yl)pyridine-2-carboxamide] | 5.00 to 10.00 |
| CNC1CCN(C(=O)c2cccc(-c3cnc4[nH]c(C5=CCC(C)(C)CC5)cc4c3)n2)C1 (centres unmarked) [Compound P-0070, [6-[2-(4,4-dimethylcyclohexen-1-yl)-1H-pyrrolo[2,3-b]pyridin-5-yl]-2-pyridyl]-[3-(methylamino)pyrrolidin-1-yl]methanone] | 5.00 to 10.00 |
